Assay results taken from US10023566B2, “Dasatinib salts” (EGIS GYOGYSZERGYAR ZRT, priority 2014, dated 2018).
Counter-ions that a name gives are not always drawn.

Key:
[1] = Determination of the solubility of dasatinib salts (shake flask 37° C., HPLC); format: physicochemical; details: 6 hour shaking, 18 hour sedimentation
Protocol: Considering the above mentioned facts our solubility measurements were carried out on three different pH values (pH 1, pH 4.5 and pH 6.8).
Determination of the Solubility of Dasatinib Salts (Measurement Conditions)
Preparation of Sample Mixture:
• 100 mg of dasatinib salt are weighed in a 20 ml Erlenmeyer flask whereupon 10 ml of medium are added and it is shaked for 6 hours at a temperature of 37° C. on 100 rpm. After sedimentation for 18 hours at a temperature of 37° C. the settled solution is filtered through a sieve with 0.45 μm pores and the solution is diluted up to 20 ml with medium.

[2] = Storage stability test: quantity of impurities by HPLC and change thereof; format: physicochemical; details: for stability in the storage tests (in words): storage tests carried out under various conditions, thermal stress and forced stability tests
Description: In course of the thermal stress test and the forced stability test the decompositions in a pharmaceutical composition occurring during storage are constructed essentially in an accelerated manner. […] The advantageous properties of the new dasatinib salts of the present invention are significant from the point of view of the formulation of pharmaceutical compositions, the storage and the minimization of the harmful effects exerted in the human body.
The stability of the new dasatinib salts of the present invention were subjected to detailed tests.
Our results regarding the quantity of the impurities and change thereof are shown in the tables below (expressed in percentage).
Measuring conditions are the same as the determination of purity profile below.
Determination of the Impurities of Dasatinib Salts by HPLC (Measurement Conditions)

[3] = 3 week, 40° C./70% RH, listed as Anhydrous dasatinib p-toluenesulfonic acid (1:1) salt Form I

Cc1nc(Nc2ncc(C(=O)Nc3c(C)cccc3Cl)s2)cc(N2CCN(CCO)CC2)n1 [dasatinib mesilate (1:2), N-(2-Chloro-6-methylphenyl)-2-[6-[4-(2-hydroxyethyl)piperazin-1-yl]-2-methylpyrimidin-4-ylamino]-1,3-thiazole-5-carboxamide]
solubility ([1]; pH = 4.5 phosphate buffer): 0.805 mg/mL | solubility ([1]; pH = 6.8 phosphate buffer): 0.017 mg/mL

Cc1nc(Nc2ncc(C(=O)Nc3c(C)cccc3Cl)s2)cc(N2CCN(CCO)CC2)n1 [Dasatinib monohydrate, N-(2-Chloro-6-methylphenyl)-2-[6-[4-(2-hydroxyethyl)piperazin-1-yl]-2-methylpyrimidin-4-ylamino]-1,3-thiazole-5-carboxamide, reference compound]
Impurity Dasatinib N-oxyde (RT 12.2-12.4) ([2]; 3 week, 25° C./90% RH): 0.03% | Impurity Dasatinib imp 2 (RT 5.2) ([2]; 3 week, 25° C./90% RH): 0.11% | Impurity Dasatinib imp 3 (RT 18.9) ([2]; 3 week, 25° C./90% RH): 0.04% | Impurity Deshydroxyethyl dasatinib (RT 11.0) ([2]; 3 week, 25° C./90% RH): 0.12% | Impurity Ethylene-diamine intermedier (RT 9.0-9.3) ([2]; 3 week, 25° C./90% RH): 0.06% | Impurity Summary (%) ([2]; 3 week, 25° C./90% RH): 0.43% | Impurity, unnamed, RT 20.3 ([2]; 3 week, 25° C./90% RH): 0.07% | Impurity Dasatinib N-oxyde (RT 12.2-12.4) ([2]; 3 week, 40° C./70% RH): 0.03% | Impurity Dasatinib imp 2 (RT 5.2) ([2]; 3 week, 40° C./70% RH): 0.10% | Impurity Dasatinib imp 3 (RT 18.9) ([2]; 3 week, 40° C./70% RH): 0.03% | Impurity Deshydroxyethyl dasatinib (RT 11.0) ([2]; 3 week, 40° C./70% RH): 0.12% | Impurity Ethylene-diamine intermedier (RT 9.0-9.3) ([2]; 3 week, 40° C./70% RH): 0.08% | Impurity Summary (%) ([2]; 3 week, 40° C./70% RH): 0.43% | Impurity, unnamed, RT 20.3 ([2]; 3 week, 40° C./70% RH): 0.07% | Impurity Dasatinib imp 2 (RT 5.2) ([2]; 6 week, 25° C./90% RH): 0.10% | Impurity Dasatinib imp 3 (RT 18.9) ([2]; 6 week, 25° C./90% RH): 0.04% | Impurity Deshydroxyethyl dasatinib (RT 11.0) ([2]; 6 week, 25° C./90% RH): 0.12% | Impurity Ethylene-diamine intermedier (RT 9.0-9.3) ([2]; 6 week, 25° C./90% RH): 0.03% | Impurity Summary (%) ([2]; 6 week, 25° C./90% RH): 0.39% | Impurity, unnamed, RT 19.6 ([2]; 6 week, 25° C./90% RH): 0.02% | Impurity, unnamed, RT 20.3 ([2]; 6 week, 25° C./90% RH): 0.08% | Impurity Dasatinib N-oxyde (RT 12.2-12.4) ([2]; 6 week, 40° C./70% RH): 0.02% | Impurity Dasatinib imp 2 (RT 5.2) ([2]; 6 week, 40° C./70% RH): 0.11% | Impurity Dasatinib imp 3 (RT 18.9) ([2]; 6 week, 40° C./70% RH): 0.04% | Impurity Deshydroxyethyl dasatinib (RT 11.0) ([2]; 6 week, 40° C./70% RH): 0.12% | Impurity Ethylene-diamine intermedier (RT 9.0-9.3) ([2]; 6 week, 40° C./70% RH): 0.03% | Impurity Summary (%) ([2]; 6 week, 40° C./70% RH): 0.41% | Impurity, unnamed, RT 19.6 ([2]; 6 week, 40° C./70% RH): 0.02% | Impurity, unnamed, RT 20.3 ([2]; 6 week, 40° C./70% RH): 0.07% | Impurity Dasatinib N-oxyde (RT 12.2-12.4) ([2]; starting sample): 0.02% | Impurity Dasatinib imp 2 (RT 5.2) ([2]; starting sample): 0.11% | Impurity Dasatinib imp 3 (RT 18.9) ([2]; starting sample): 0.04% | Impurity Deshydroxyethyl dasatinib (RT 11.0) ([2]; starting sample): 0.12% | Impurity Ethylene-diamine intermedier (RT 9.0-9.3) ([2]; starting sample): 0.03% | Impurity Summary (%) ([2]; starting sample): 0.38% | Impurity, unnamed, RT 20.3 ([2]; starting sample): 0.08% | stability in the storage tests (in words) ([2]; listed as dasatinib base monohydrate): most stable and suitable form disclosed in the prior art | solubility ([1]; 0.1M HCl (pH 1)): 5.757 mg/mL | solubility ([1]; pH = 4.5 phosphate buffer): 0.555 mg/mL | solubility ([1]; pH = 6.8 phosphate buffer): 0.156 mg/mL

Cc1nc(Nc2ncc(C(=O)Nc3c(C)cccc3Cl)s2)cc(N2CCN(CCO)CC2)n1 [dasatinib cyclamic acid (1:1) salt Form II] [N-(2-Chloro-6-methylphenyl)-2-[6-[4-(2-hydroxyethyl)piperazin-1-yl]-2-methylpyrimidin-4-ylamino]-1,3-thiazole-5-carboxamide]
Impurity Dasatinib N-oxyde (RT 12.2-12.4) ([2]; 3 week, 25° C./90% RH): 0.04% | Impurity Deshydroxyethyl dasatinib (RT 11.0) ([2]; 3 week, 25° C./90% RH): 0.04% | Impurity Ethylene-diamine intermedier (RT 9.0-9.3) ([2]; 3 week, 25° C./90% RH): 0.03% | Impurity Summary (%) ([2]; 3 week, 25° C./90% RH): 0.11% | Impurity Deshydroxyethyl dasatinib (RT 11.0) ([2]; 3 week, 40° C./70% RH): 0.04% | Impurity Ethylene-diamine intermedier (RT 9.0-9.3) ([2]; 3 week, 40° C./70% RH): 0.03% | Impurity Summary (%) ([2]; 3 week, 40° C./70% RH): 0.07% | Impurity Deshydroxyethyl dasatinib (RT 11.0) ([2]; 6 week, 25° C./90% RH): 0.04% | Impurity Ethylene-diamine intermedier (RT 9.0-9.3) ([2]; 6 week, 25° C./90% RH): 0.03% | Impurity Summary (%) ([2]; 6 week, 25° C./90% RH): 0.07% | Impurity Dasatinib N-oxyde (RT 12.2-12.4) ([2]; 6 week, 40° C./70% RH): 0.03% | Impurity Deshydroxyethyl dasatinib (RT 11.0) ([2]; 6 week, 40° C./70% RH): 0.04% | Impurity Ethylene-diamine intermedier (RT 9.0-9.3) ([2]; 6 week, 40° C./70% RH): 0.02% | Impurity Summary (%) ([2]; 6 week, 40° C./70% RH): 0.09% | Impurity Deshydroxyethyl dasatinib (RT 11.0) ([2]; starting sample): 0.04% | Impurity Ethylene-diamine intermedier (RT 9.0-9.3) ([2]; starting sample): 0.03% | Impurity Summary (%) ([2]; starting sample): 0.07% | stability in the storage tests (in words) [2]: particularly stable | solubility ([1]; 0.1M HCl (pH 1)): 8.862 mg/mL | solubility ([1]; pH = 4.5 phosphate buffer): 4.544 mg/mL

Cc1nc(Nc2ncc(C(=O)Nc3c(C)cccc3Cl)s2)cc(N2CCN(CCO)CC2)n1 [dasatinib hydrogen bromide (1:2) salt, N-(2-Chloro-6-methylphenyl)-2-[6-[4-(2-hydroxyethyl)piperazin-1-yl]-2-methylpyrimidin-4-ylamino]-1,3-thiazole-5-carboxamide]
solubility ([1]; 0.1M HCl (pH 1)): 7.994 mg/mL | solubility ([1]; pH = 4.5 phosphate buffer): 1.056 mg/mL

Cc1nc(Nc2ncc(C(=O)Nc3c(C)cccc3Cl)s2)cc(N2CCN(CCO)CC2)n1 [dasatinib tosilate (1:1) Form II anhydrate] [N-(2-Chloro-6-methylphenyl)-2-[6-[4-(2-hydroxyethyl)piperazin-1-yl]-2-methylpyrimidin-4-ylamino]-1,3-thiazole-5-carboxamide]
solubility ([1]; 0.1M HCl (pH 1)): 5.702 mg/mL | solubility ([1]; pH = 4.5 phosphate buffer): 2.805 mg/mL | solubility ([1]; pH = 6.8 phosphate buffer): 0.011 mg/mL

Cc1nc(Nc2ncc(C(=O)Nc3c(C)cccc3Cl)s2)cc(N2CCN(CCO)CC2)n1 [dasatinib tosilate (1:1) dihydrate, N-(2-Chloro-6-methylphenyl)-2-[6-[4-(2-hydroxyethyl)piperazin-1-yl]-2-methylpyrimidin-4-ylamino]-1,3-thiazole-5-carboxamide]
solubility ([1]; 0.1M HCl (pH 1)): 4.898 mg/mL | solubility ([1]; pH = 4.5 phosphate buffer): 1.641 mg/mL | solubility ([1]; pH = 6.8 phosphate buffer): 0.010 mg/mL

Cc1nc(Nc2ncc(C(=O)Nc3c(C)cccc3Cl)s2)cc(N2CCN(CCO)CC2)n1 [dasatinib tosilate (1:1) Form I anhydrate] [N-(2-Chloro-6-methylphenyl)-2-[6-[4-(2-hydroxyethyl)piperazin-1-yl]-2-methylpyrimidin-4-ylamino]-1,3-thiazole-5-carboxamide]
Impurity, unnamed, RT 15.5 ([2]; 3 week, 25° C./90% RH): 0.03% | Impurity Summary (%) ([2]; 3 week, 25° C./90% RH, listed as Anhydrous dasatinib p-toluenesulfonic acid (1:1) salt Form I): 0.03% | Impurity Ethylene-diamine intermedier (RT 9.0-9.3) [2, 3]: 0.03% | Impurity Summary (%) [2, 3]: 0.03% | Impurity, unnamed, RT 15.5 ([2]; starting sample): 0.03% | Impurity Summary (%) ([2]; starting sample, listed as Anhydrous dasatinib p-toluenesulfonic acid (1:1) salt Form I): 0.03% | stability in the storage tests (in words) ([2]; listed as anhydrous dasatinib p-toluenesulfonic acid (1:1) salt Form I): particularly stable | solubility ([1]; 0.1M HCl (pH 1)): 5.365 mg/mL | solubility ([1]; pH = 4.5 phosphate buffer): 4.510 mg/mL

Cc1nc(Nc2ncc(C(=O)Nc3c(C)cccc3Cl)s2)cc(N2CCN(CCO)CC2)n1 [dasatinib cyclamic acid (1:1) salt Form I] [N-(2-Chloro-6-methylphenyl)-2-[6-[4-(2-hydroxyethyl)piperazin-1-yl]-2-methylpyrimidin-4-ylamino]-1,3-thiazole-5-carboxamide]
Impurity Dasatinib N-oxyde (RT 12.2-12.4) ([2]; 3 week, 25° C./90% RH): 0.03% | Impurity Deshydroxyethyl dasatinib (RT 11.0) ([2]; 3 week, 25° C./90% RH): 0.03% | Impurity Ethylene-diamine intermedier (RT 9.0-9.3) ([2]; 3 week, 25° C./90% RH): 0.02% | Impurity Summary (%) ([2]; 3 week, 25° C./90% RH): 0.11% | Impurity, unnamed, RT 15.5 ([2]; 3 week, 25° C./90% RH): 0.03% | Impurity Dasatinib N-oxyde (RT 12.2-12.4) ([2]; 3 week, 40° C./70% RH): 0.03% | Impurity Deshydroxyethyl dasatinib (RT 11.0) ([2]; 3 week, 40° C./70% RH): 0.03% | Impurity Summary (%) ([2]; 3 week, 40° C./70% RH): 0.09% | Impurity, unnamed, RT 15.5 ([2]; 3 week, 40° C./70% RH): 0.03% | Impurity Dasatinib N-oxyde (RT 12.2-12.4) ([2]; 6 week, 25° C./90% RH): 0.03% | Impurity Deshydroxyethyl dasatinib (RT 11.0) ([2]; 6 week, 25° C./90% RH): 0.03% | Impurity Summary (%) ([2]; 6 week, 25° C./90% RH): 0.06% | Impurity Dasatinib N-oxyde (RT 12.2-12.4) ([2]; 6 week, 40° C./70% RH): 0.03% | Impurity Deshydroxyethyl dasatinib (RT 11.0) ([2]; 6 week, 40° C./70% RH): 0.03% | Impurity Summary (%) ([2]; 6 week, 40° C./70% RH): 0.06% | Impurity Dasatinib N-oxyde (RT 12.2-12.4) ([2]; starting sample): 0.03% | Impurity Deshydroxyethyl dasatinib (RT 11.0) ([2]; starting sample): 0.03% | Impurity Summary (%) ([2]; starting sample): 0.09% | Impurity, unnamed, RT 15.5 ([2]; starting sample): 0.03% | stability in the storage tests (in words) [2]: particularly stable | solubility ([1]; 0.1M HCl (pH 1)): 8.533 mg/mL | solubility ([1]; pH = 4.5 phosphate buffer): 6.194 mg/mL | solubility ([1]; pH = 6.8 phosphate buffer): 0.005 mg/mL
